According to patent US10787650B2, “Artificial bioluminescent enzymes” (NATIONAL INSTITUTE OF ADVANCED INDUSTRIAL SCIENCE AND …, priority 2015, dated 2020):

Legend:
ALuc16 [1] = assay: Metal cation-driven variance of bioluminescence spectra of ALuc16; assay type: biochemical; conditions: 100 μg/mL cation
Description: The corresponding bioluminescence spectra (FIG. 6(B)) were also measured using the same method as that of FIG. 6(A). In a 200 μL PCR tube, 50 μL of the mixture of ALuc16 and a metal cation (Ca(II), Fe(III), Ni(II), Zn(II), Mg(II), or Cr(VI); concentration: 100 μg/mL) in the metal-cation-free Tris-HCl buffer (Solution A) was further mixed with 10 μL of an nCTZ solution (Solution B). The tube was immediately moved into the chamber of a precision spectrophotometer (AB-1850, ATTO) (FIG. 6(B)), and the consequent spectra were taken in an integration of 30 seconds.

ALuc16 [2] = assay: Cation-driven long-term stability of optical intensities of ALuc16; assay type: biochemical
Description: The long-term stability of optical intensities was estimated by the same method as that of FIG. 6(A) (FIG. 8(A)). The microplate was placed in the chamber of LAS-4000, and the optical intensities were monitored every 5 minutes, after substrate injection, for a duration of 60 minutes.

molecular strain sensor = assay: Metal ion effects on luminescence of the purified molecular strain sensor; assay type: biochemical; conditions: within 1 minute after substrate addition
Description: For this experiment, the concentration of the purified molecular strain sensor was adjusted to 0.1 mg/mL by dilution in a Tris-HCl buffer (pH 8.2). Rapamycin was added to the molecular strain sensor and the final concentration was adjusted to […]. After that, the resultant was diluted with metal ion-containing Tris-HCl buffer (pH 8.2) to make a 0.01 mg/mL molecular strain sensor solution. At this time, the final concentration of the metal ion added was 10 μg/mL. The solution was transferred to a 96-well microplate, and, while the substrate solution was added from a microinjector, luminescence intensities were measured with or without a metal ion.
The luminescence stability of the luminescent probe dependent on different metal ion concentrations was studied by a similar technique (FIG. 23). The substrate solution was added from a microinjector in the same manner as above, and then changes in luminescence intensity over 1 minute were measured.

Fridericia luciferase = conditions: cited from earlier work
[3] = Luminescence activity of novel artificial bioluminescent enzymes (COS-7 cell lysate); assay type: biochemical, African green monkey; conditions: COS-7 lysate, native coelenterazine
Description: African green monkey kidney-derived COS-7 cells were cultured using a 96-well microplate. The COS-7 cells were grown until occupying 90% of the bottom-surface area of the culture plate, and, as shown in FIG. 19 and FIG. 20, were each transiently transfected with a pcDNA 3.1(+) vector (Invitrogen) encoding each luminescent enzyme with a lipofection reagent (TransIT-LT1, Mirus). After that, the cells were further cultured for about 1 day. After the culture, cell lysates were prepared using a cell lysis agent (Lysis buffer, Promega), and 5 μL each of the cell lysates was taken from each well and transferred to a 96-well microplate for measurement. An assay buffer (50 μL) containing native coelenterazine was simultaneously added to each well using a multichannel pipette. Immediately after the addition of the assay buffer, the microplate was moved into the black box of an image analyzer (LAS-4000, FujiFilm), and luminescence images were measured with a CCD camera (FIG. 19 and FIG. 20).

[4] = Enzymatic activity confirmation: temporal stability in luminescence; assay type: biochemical, African monkey; conditions: compared to existing ALuc or conventional copepod luciferases
Description: The enzymatic activity of ALuc may be examined according to the following method. First, using a known lipid reagent for gene introduction, an expression vector encoding ALuc is introduced into African monkey-derived COS-7 cells. As a control, an expression vector having a known GLuc without any mutation is also introduced into the cells in the same manner. At a predetermined time (from 10 hours to 20 hours, for example, 16 hours) after the introduction of the vector, a cell lysate is prepared using a known cell lysis reagent.
After that, the cell lysate is mixed with a known substrate solution containing coelenterazine, and its color intensity, temporal stability in luminescence, and the like are measured.
The luminescence intensity may be found by measuring the intensity at a specific wavelength using a conventional luminescence spectrophotometer after addition of a known substrate. By performing the measurement every minute, the temporal stability in luminescence can be evaluated based on the temporal change in luminescence. In order to measure a shift to a longer wavelength, scanning of the entire wavelength is required.

Row | Molecule | blue shift of the bioluminescence spectrum (ALuc16 [1]) | effect on long-term stability of bioluminescence intensities (ALuc16 [2]; 60 minutes after substrate injection) | optical intensity retained (ALuc16 [2]; after 60 minutes) | initial optical intensity sustained (ALuc16 [2]; for 13 minutes after nCTZ injection) | effect of increasing concentration on overall luminescence intensity (molecular strain sensor) | effect of increasing concentration on S/N ratio (molecular strain sensor; with/without rapamycin) | effect on activities of Fridericia luciferase (Fridericia luciferase) | luminescence intensities as compared to conventional ALucs (e.g., ALuc16 and ALuc30) [3] | luminescence stability [4]
1 | [Ca+2].[Cl-].[Cl-] [Ca(II)] | 2 nm | prolonged the bioluminescence intensities in a concentration-dependent manner | 4% | 60% | reduces an overall luminescence intensity | improves an S/N ratio | elevate | – | –
2 | ALuc45: artificial luciferase, SEQ ID NO: 5 (protein) MMGIKVLFALVCLALVQAKPTEDEDEDDIVDVVGNFWAIGVDNDRDFTISADRGKLPGKKLPKEVLIEIEANAKKAGCTRGCLICLSKIKCTAKMKKWLPGRCHSYEGDKDTGQGGIGEPIVDAPEIPGFKDLTPMEQFIAQVDLCADCTTGCLKGLANVKCSALLKKWLPDRCASFADKIQKEVDNIKGLAGS | – | – | – | – | – | – | – | even stronger luminescence intensities | remarkably stable luminescence signal
